The values below come from patent US20250000868A1, “USE OF ADENOSINE A2B RECEPTOR AS TARGET IN DRUGS FOR PREVENTION AND/OR TREATMENT OF PRURITUS” (The Fourth Affiliated Hospital, ZJU, priority 2023, published 2025).

Entries after “also recorded” stand apart in the source; their conditions may differ.

In experiment [1] the target is T1, adenosine A2B receptor (Mus musculus, UniProt Q60614).
T1 construct: from tissue; host or cells: living mouse; intrathecal dosing, receptor expressed in dorsal root ganglion neurons
T1 sequence (Q60614 1-332): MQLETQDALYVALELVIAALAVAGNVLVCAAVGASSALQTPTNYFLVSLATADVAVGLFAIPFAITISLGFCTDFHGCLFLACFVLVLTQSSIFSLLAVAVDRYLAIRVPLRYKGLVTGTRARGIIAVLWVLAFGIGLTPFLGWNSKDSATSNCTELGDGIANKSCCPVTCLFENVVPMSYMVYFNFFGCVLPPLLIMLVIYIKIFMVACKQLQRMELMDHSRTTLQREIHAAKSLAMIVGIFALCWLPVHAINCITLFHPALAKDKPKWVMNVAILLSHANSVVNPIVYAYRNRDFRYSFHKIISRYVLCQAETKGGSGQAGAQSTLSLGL
The experiment is described as follows: Histamine-induced scratching behavioral experiment. In kind it is in vivo. The following applies: for number of histamine-induced scratches: within 30 min before histamine 250 μg/50 μL s.c. neck, scratches recorded within 30 min. The method, then:
(§1) Refer to the prior art (Jang et al., 2015) for scratching behavior. The specific operation method was as follows: each mouse neck hair was shaved two days before the experiment, and the mouse was housed in a transparent organic plastic chamber to receive acclimatization training for two consecutive days, at least 1 h a day. Adjacent transparent plastic chambers were separated by a piece of white paper to eliminate mutual interference between mice. On the day of the experiment, histamine (250 μg/50 μL) was subcutaneously injected into the mouse neck and the mice were immediately placed in the transparent plastic chamber to record scratching behaviors within 30 min using a camera. One effective scratch was defined as follows: a mouse lifted its hind leg to scratch the skin at the […] injection site and put the hind leg down, and despite the number of scratches in the interval between lifting the hind leg and putting it down, an effective scratching behavior was considered. To evaluate the antipruritic effect of PSB-603, the mice received an intrathecal injection of PSB-603 (the administration dose was 10 μL, and the dosing concentration was 1 or 10 μM) within 30 min before histamine injection.
(§2) Using a pharmacological method, the adenosine A2B receptor activity is blocked by intrathecal injection of selective adenosine A2B receptor antagonist PSB-603. […] Moreover, alleviating the effect of PSB-603 on scratch is related to the dose. […] Therefore, inhibition of the adenosine A2B receptor is an effective way to treat pruritus.

Experiment [2] has as its target T1, adenosine A2B receptor. Put plainly: Chloroquine-induced scratching behavioral experiment. Format: in vivo. The following applies: for number of chloroquine-induced scratches: within 30 min before chloroquine 200 μg/50 μL s.c. neck, scratches recorded within 30 min. As for the experimental part: as §1, with “the experiment, chloroquine (200 μg/50 μL)” for “the experiment, histamine (250 μg/50 μL)”, “concentration was 1, 10 or 20” for “concentration was 1 or 10”, “10 or 20 μM) within” for “1 or 10 μM) within”, “min before chloroquine injection.” for “min before histamine injection.”
as §2

The mark [3] stands for this setting: PSB-603 intrathecal 10 μL at 10 μM.

As for `CCCn1c(=O)[nH]c2nc(-c3ccc(S(=O)(=O)N4CCN(c5ccc(Cl)cc5)CC4)cc3)[nH]c2c1=O` [PSB-603], the “number of histamine-induced scratches” value in experiment [1] (setting [3]) is “reduces the number of histamine-induced scratches”; in experiment [1] (PSB-603 intrathecal 10 μL at dose of 1 μM) it was “the number of animal scratches cannot be reduced”. In addition, the “histamine-induced scratching behaviors, overall effect” value in experiment [1] (intrathecal injection of PSB-603 in advance, 1 or 10 μM, FIG. 3C) is “dose-dependent inhibition; also recorded: can effectively prevent histamine-induced scratching behaviors”. Moreover, the “number of chloroquine-induced scratches” value in experiment [2] (setting [3]) and in experiment [2] (PSB-603 intrathecal 10 μL at 20 μM) was “reduces the number of chloroquine-induced scratches” each time. Besides, the “chloroquine-induced scratching behaviors, overall effect” value in experiment [2] (intrathecal injection of PSB-603 in advance, 1, 10 or 20 μM, FIG. 4) was “dose-dependent inhibition; also recorded: can effectively prevent chloroquine-induced scratching behaviors”.
